Data as given in patent US20250197425A1, “2,6,9-TRISUBSTITUTED PURINES” (ASTRAZENECA AB, priority 2022, published 2025).
Converted amounts (≈) assume the structure as drawn. Read-outs that look alike come from different tables or passages of the source.

What was measured:
[1] = test system: MCF-7 cells; assay: Cellular proliferation EdU assay, MCF-7; assay type: cell-based; details: Homo sapiens, MCF7, 48 h, read-out: MCF-7 IC50
Experimental: (§1) Compounds were tested to assess inhibition of cellular proliferation in the breast cancer cell line MCF-7 and the CCNE1-amplified ovarian cell line OVCAR3.
(§2) MCF-7 and OVCAR3 cells in RPMI supplemented with 10% Fetal bovine serum were seeded into 384-well plates (Greiner, Kremsmunster, Austria; 781091), 30 μL/well, using a WellMate. The MCF7 and OVCAR3 cells were seeded at 800 and 1200 cells/well, respectively. Test compounds were added to the wells using an Echo 555 liquid handler and the plates were placed in incubator maintained at 37° C. and 5% CO2 and incubated for two days. On Day 2, an EdU assay was performed following the manufacturer's protocol (Thermo Fisher, C10351). The cells were read on an Acumen eX3 instrument. The IC50 values of test compounds were determined in Genedata by assessing the ratio of signal intensity at 488 nm to the area of signal at 405 nm.

[2] = test system: OVCAR3 cells; assay: Cellular proliferation EdU assay, OVCAR3; assay type: cell-based, human; details: Homo sapiens, OVCAR-3, 48 h, read-out: OVCAR3 IC50
Experimental: as §1, §2

[3] = test system: POLR2A Ser2 phosphorylation (CDK9); assay: POLR2A Ser2 phosphorylation imaging assay in MCF-7 cells; assay type: cell-based; details: Homo sapiens, MCF7, 2 h, read-out: POLR2A Ser2 phosphorylation IC50
Experimental: Compounds were tested to assess their effect on CDK9 activity in a cellular context. […] During the cell cycle, CDK9 is a component of a multiprotein complex that phosphorylates POLR2A Ser2 which results in transcription elongation.
[…] were fixed by addition of 40 μL/well of 8% paraformaldehyde and incubated for 10 minutes at room temperature. The plates were washed three times with 50 μL/well PBS using a Biotek EL406 plate washer and then permeabilized for 10 minutes at room temperature in 0.3% Triton X100 in PBS. After washing as before, the plates were blocked using 30 μL/well of 2% BSA (w/v) in PBS-T for over 30 minutes at room temperature. […] After washing in PBS as before, leaving each well in 40 μL of PBS, the plates were sealed and imaged on a Cell Insight imaging system (Thermo) with a 10× objective and 2 fields of view per well. POLR2A Ser2levels were normalized to controls and the IC50 values of test compounds determined using Genedata Screener software.

[4] = test system: NPM phosphorylation (Thr199, CDK2-cyclin E complex); assay: NPM phosphorylation imaging assay in MCF-7 cells; assay type: cell-based; details: Homo sapiens, MCF7, 2 hours, 4N DNA cells
Experimental: Compounds were tested to assess the effects of CDK2 inhibition in a cellular context. […] During the cell cycle, the CDK2-cyclin E complex phosphorylates NPM at Thr199 which is a prerequisite step for initiation of centrosome duplication.
The cells were fixed by addition of 40 μL/well of 8% paraformaldehyde and incubated at room temperature for 10 minutes. The plates were washed three times with 50 μL/well PBS using a Biotek EL406 plate washer and then permeabilized for 10 minutes at room temperature in 0.3% Triton X100 in PBS. After washing as before, the plates were blocked using 30 μL/well of 2% BSA (w/v) in PBS-T for at least 30 minutes at room temperature. […] Cells containing 4N DNA were selected using the Hoechst staining. Phospho-NPM levels were normalized to controls and the IC50 values of test compounds determined using Genedata Screener software.

[5] = Aqueous thermodynamic solubility, shake-flask; assay type: physicochemical; details: aqueous phosphate buffer, 25 °C, pH 7.4, aqueous buffer, thermodynamic from solid, phosphate buffer 0.1 M, pH 7.4, 24 hours
Experimental: The DMSO was evaporated and the dried compounds were equilibrated in glass vials in aqueous phosphate buffer (0.1 M, pH 7.4) for 24 hours at 25° C. under constant stirring. The portion with the dissolved compound was then separated from the remainder through a double centrifugation with a tip wash in between to ensure that no residues of the dried compound were interfering. The solutions were diluted with purified water before quantification using UPLC/MS/MS.

[6] = target: CDK4:CCND1 (Homo sapiens (Human), UniProt P11802); assay: NanoBRET assay in MCF-7 cells, CDK4; assay type: cell-based; details: CDK4 IC50, NanoBRET, transfected MCF-7 cells, 2 hours; n = 1 or average
CDK4:CCND1, sequence (P11802 whole entry): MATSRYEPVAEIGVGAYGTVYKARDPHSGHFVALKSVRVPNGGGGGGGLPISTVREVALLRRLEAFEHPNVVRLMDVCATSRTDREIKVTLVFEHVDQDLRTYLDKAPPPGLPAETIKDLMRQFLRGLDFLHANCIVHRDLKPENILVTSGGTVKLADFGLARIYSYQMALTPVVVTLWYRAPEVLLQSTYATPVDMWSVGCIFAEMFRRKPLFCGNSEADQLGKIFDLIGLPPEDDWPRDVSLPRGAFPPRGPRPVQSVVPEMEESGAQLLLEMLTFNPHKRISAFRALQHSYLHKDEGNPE
CDK4:CCND1, sequence (P24385 whole entry partner): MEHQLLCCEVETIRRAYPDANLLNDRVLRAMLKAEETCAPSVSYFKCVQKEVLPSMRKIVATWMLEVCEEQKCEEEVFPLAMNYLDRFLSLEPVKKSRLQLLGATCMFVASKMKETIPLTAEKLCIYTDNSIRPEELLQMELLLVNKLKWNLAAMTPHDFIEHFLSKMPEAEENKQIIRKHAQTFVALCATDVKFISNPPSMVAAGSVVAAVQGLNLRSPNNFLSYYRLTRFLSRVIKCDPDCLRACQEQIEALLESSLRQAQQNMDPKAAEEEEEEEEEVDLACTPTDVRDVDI
Experimental: (§3) Compounds were tested in breast cancer cell line MCF-7 to assess inhibition of CDK1, CDK2, and CDK4 activity. MCF-7 cells transiently transfected with CDK1:CCNB1, CDK2:CCNE1, or CDK4:CCND1 were harvested at a density of 1E5 cells/mL in complete media, seeded 20 μL/well into 384-well Greiner 784080 plates using a Multidrop Combi, and incubated overnight at 37° C. and 5% CO2. The next day media were evacuated from the wells using the Bluewasher centrifugal plate washer (Bluecatbio) and 10 μL/well phenol red free OptiMEM was then added using a Multidrop Combi. […] Immediately after compound addition, a Tecan HP300 dispensor was used to dispense the relevant NanoBRET™ tracer to the CDK1 wells (12.5 nl, 400 μM, NanoBRET™ TE Tracer K-9), the CDK2 wells (12.5 nl, 200 μM, NanoBRET™ TE Tracer K-9), and the CDK4 wells (8 nl, 100 μM, NanoBRET™ TE Tracer K-7) and the plates were incubated for 2 hours at 37° C. and 5% CO2. The plates were allowed to cool for 10 minutes at room temperature and 5 μL/well of TE Nano-Glo®Substrate/Inhibitor at 2.4 μM and 1:500 respectively (N2162 Promega) was added. The plates were incubated in subdued lighting for 10 minutes and then read on a Pherastar FS plate reader (BMG Technologies) using a NanoBRET™ filter module (460±80 nm/610 nm-LP). The ratio values were normalized to controls and the IC50 values of test compounds determined using Genedata Screener software.

[7] = target: CDK2:CCNE1 (Homo sapiens (Human), UniProt P24941); assay: NanoBRET assay in MCF-7 cells, CDK2; assay type: cell-based; details: transfected MCF-7 cells, 2 hours, n = 1 or average
Experimental: as §3, with “MCF-7 cells transiently transfected with CDK1:CCNB1, CDK2:CCNE1, or CDK4:CCND1 were harvested at a density of 1E5 cells/mL in complete media, seeded 20 μL/well into 384-well Greiner 784080 plates using a Multidrop Combi, and incubated overnight at 37° C. and 5% CO2.” left out, “The plates were allowed to cool for 10 minutes at room temperature and 5 μL/well of TE Nano-Glo®Substrate/Inhibitor at 2.4 μM and 1:500 respectively (N2162 Promega) was added.” left out

[8] = target: CDK1:CCNB1 (Homo sapiens (Human), UniProt P06493); assay: NanoBRET assay in MCF-7 cells, CDK1; assay type: cell-based; details: CDK1 IC50, NanoBRET, transfected MCF-7 cells, 2 hours; n = 1 or average
CDK1:CCNB1, sequence (P06493 whole entry): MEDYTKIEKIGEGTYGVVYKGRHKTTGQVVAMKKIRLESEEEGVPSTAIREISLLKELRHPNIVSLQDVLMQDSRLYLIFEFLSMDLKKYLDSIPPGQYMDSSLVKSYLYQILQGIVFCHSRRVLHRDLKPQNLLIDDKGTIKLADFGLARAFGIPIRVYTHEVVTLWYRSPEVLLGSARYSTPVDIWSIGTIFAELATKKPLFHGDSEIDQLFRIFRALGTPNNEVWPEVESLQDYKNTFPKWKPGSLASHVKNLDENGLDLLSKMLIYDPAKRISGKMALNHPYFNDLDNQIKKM
CDK1:CCNB1, sequence (P14635 whole entry partner): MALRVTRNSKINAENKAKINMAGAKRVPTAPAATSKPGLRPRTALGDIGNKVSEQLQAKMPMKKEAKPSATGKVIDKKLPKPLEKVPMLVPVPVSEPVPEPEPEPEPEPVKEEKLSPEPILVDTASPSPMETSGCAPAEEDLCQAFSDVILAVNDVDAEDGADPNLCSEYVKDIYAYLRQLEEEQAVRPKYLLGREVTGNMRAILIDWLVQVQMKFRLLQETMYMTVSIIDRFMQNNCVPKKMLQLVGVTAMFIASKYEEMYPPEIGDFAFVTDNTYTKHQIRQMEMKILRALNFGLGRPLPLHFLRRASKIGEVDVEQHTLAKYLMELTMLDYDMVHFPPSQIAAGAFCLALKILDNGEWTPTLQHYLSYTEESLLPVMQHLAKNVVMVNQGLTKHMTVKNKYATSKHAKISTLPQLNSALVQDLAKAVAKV
Experimental: as §3

| IC50 ([3]; MCF-7 cells, 2 hours) [nM] | SMILES | IC50 ([1]; EdU assay, two days) [nM] | IC50 ([2]; EdU assay, two days) [nM] | IC50 [3] [nM] | IC50 [4] [nM] | solubility at 24 h [5] [µM] | IC50 [1] [nM] | IC50 [6] [nM] | IC50 [2] [nM] | IC50 [7] [nM] | IC50 [8] [nM] |
| --- | --- | --- | --- | --- | --- | --- | --- | --- | --- | --- | --- |
|  | CCNS(=O)(=O)N1CC[C@H](Nc2nc(N[C@H](CC)[C@@H](C)O)nc3c2ncn3CC)C1 (mixture of isomers) [Example 13, (S)—N-ethyl-3-((9-ethyl-2-(((2R,3R)-2-hydroxypentan-3-yl)amino)-9H-purin-6-yl)amino)pyrrolidine-1-sulfonamide] | 490 | 202 | > 30000 |  |  |  |  |  |  |  |
| > 30000 | CC[C@H](Nc1nc(N[C@H]2CCN(S(=O)(=O)NCC(F)F)C2)c2ncn(CC)c2n1)[C@@H](C)O [Example 5, (S)—N-(2,2-difluoroethyl)-3-((9-ethyl-2-(((2R,3S)-2-hydroxypentan-3-yl)amino)-9H-purin-6-yl)amino)pyrrolidine-1-sulfonamide] | 917 | 154 |  |  | > 1000 |  |  |  |  |  |
|  | CCNS(=O)(=O)N1CC[C@H](Nc2nc(N[C@@H](CC)C(C)=O)nc3c2ncn3CC)C1 [Example 7, (S)—N-ethyl-3-((9-ethyl-2-(((S)-2-oxopentan-3-yl)amino)-9H-purin-6-yl)amino)pyrrolidine-1-sulfonamide] |  |  | 24200 |  | 220 (≈ 96.5 µg/mL) | 486 | 19100 | 203 | 13 | 591 |
|  | CCNS(=O)(=O)N1CC[C@H](Nc2nc(N[C@@H](CC)[C@H](C)O)nc3c2ncn3CC)C1 [Example 8, (S)—N-ethyl-3-((9-ethyl-2-(((2S,3S)-2-hydroxypentan-3-yl)amino)-9H-purin-6-yl)amino)pyrrolidine-1-sulfonamide] | 4770 | 1580 | > 30000 |  |  |  |  |  |  |  |
|  | CCNS(=O)(=O)N1CC[C@H](Nc2nc(N[C@H](CC)[C@H](C)O)nc3c2ncn3CC)C1 [Example 11, (S)—N-ethyl-3-((9-ethyl-2-(((2S,3R)-2-hydroxypentan-3-yl)amino)-9H-purin-6-yl)amino)pyrrolidine-1-sulfonamide] | 3300 | 1400 | > 30000 |  |  |  |  |  |  |  |
|  | CCNS(=O)(=O)N1CC[C@H](Nc2nc(N[C@H](CC)C(C)=O)nc3c2ncn3CC)C1 [Example 12, (S)—N-ethyl-3-((9-ethyl-2-(((R)-2-oxopentan-3-yl)amino)-9H-purin-6-yl)amino)pyrrolidine-1-sulfonamide] |  |  | > 30000 |  | 955 (≈ 419 µg/mL) | 3400 | > 29700 | 1560 | 88 | 7480 |
| 23600 | CC[C@H](Nc1nc(N[C@H]2CCN(S(=O)(=O)N[C@@H]3CCOC3)C2)c2ncn(CC)c2n1)[C@@H](C)O [Example 18, (S)-3-((9-ethyl-2-(((2R,3S)-2-hydroxypentan-3-yl)amino)-9H-purin-6-yl)amino)-N—((R)-tetrahydrofuran-3-yl)pyrrolidine-1-sulfonamide] |  | 169 |  |  | 726 (≈ 350 µg/mL) |  |  |  |  |  |
| > 30000 | CC[C@H](Nc1nc(N[C@H]2CCN(S(=O)(=O)N[C@H]3CCOC3)C2)c2ncn(CC)c2n1)[C@@H](C)O [Example 22, (S)-3-((9-ethyl-2-(((2R,3S)-2-hydroxypentan-3-yl)amino)-9H-purin-6-yl)amino)-N—((S)-tetrahydrofuran-3-yl)pyrrolidine-1-sulfonamide] | 1440 | 298 |  |  | > 1000 |  |  |  |  |  |
| > 30000 | CC[C@H](Nc1nc(N[C@H]2CCN(S(=O)(=O)N3CC(F)C3)C2)c2ncn(CC)c2n1)[C@@H](C)O [Example 24, (2R,3S)-3-((9-ethyl-6-(((S)-1-((3-fluoroazetidin-1-yl)sulfonyl)pyrrolidin-3-yl)amino)-9H-purin-2-yl)amino)pentan-2-ol] | 2930 | 856 |  |  | 466 (≈ 219 µg/mL) |  |  |  |  |  |

| SMILES | IC50 ([3]; MCF-7 cells, 2 hours) [nM] | IC50 ([1]; EdU assay, two days) [nM] | IC50 ([2]; EdU assay, two days) [nM] | IC50 [3] [nM] | IC50 [4] [nM] | solubility at 24 h [5] [µM] | IC50 [1] [nM] | IC50 [6] [nM] | IC50 [2] [nM] | IC50 [7] [nM] | IC50 [8] [nM] |
| --- | --- | --- | --- | --- | --- | --- | --- | --- | --- | --- | --- |
| CC[C@H](Nc1nc(N[C@H]2CCN(S(=O)(=O)NCC(F)(F)F)C2)c2ncn(CC)c2n1)[C@@H](C)O [Example 4, (S)-3-((9-ethyl-2-(((2R,3S)-2-hydroxypentan-3-yl)amino)-9H-purin-6-yl)amino)-N-(2,2,2-trifluoroethyl)pyrrolidine-1-sulfonamide] | > 30000 | 685 | 294 |  | 164 | 57 (≈ 28.2 µg/mL) |  |  |  |  |  |
| CC[C@H](Nc1nc(N[C@H]2CCN(S(=O)(=O)NC)C2)c2ncn(CC)c2n1)C(C)=O [Example 45, (S)-3-((9-ethyl-2-(((S)-2-oxopentan-3-yl)amino)-9H-purin-6-yl)-amino)-N-methylpyrrolidine-1-sulfonamide] | > 26700 | 944 | 359 |  |  |  |  | > 29700 |  | 39 | 1890 |
| CC[C@H](Nc1nc(N[C@H]2CCN(S(=O)(=O)NC)C2)c2ncn(CF)c2n1)[C@@H](C)O [Example 54, (S)-3-((9-(fluoromethyl)-2-(((2R,3S)-2-hydroxypentan-3-yl)amino)-9H-purin-6-yl)amino)-N-methylpyrrolidine-1-sulfonamide] | > 30000 | 1370 | 756 |  | 334 | 593 (≈ 255 µg/mL) |  |  |  |  |  |
